# Assay results as given in patent US20230011869A1 (Hoffmann-La Roche Inc., priority 2018, published 2023).
# Counter-ions that a name gives are not always drawn. Like-named read-outs stand apart in the source and are kept apart here.
# Test system: Acinetobacter baumannii ATCC17978
# Experiment: Antimicrobial susceptibility testing: 90% growth inhibitory concentration (IC90) determination, Iso-Sensitest broth
# Assay type: cell-based
# Procedure: Antimicrobial Susceptibility Testing:
# 90% Growth Inhibitory Concentration (IC90) Determination
# The in vitro antimicrobial activity of the compounds was determined according to the following procedure:
# The assay used a 10-points Iso-Sensitest broth medium to measure quantitatively the in vitro activity of the compounds against Acinetobacter baumannii ATCC17978 and Acinetobacter baumannii ATCC17961.
# Microtiter plates were incubated at 35±2° C.
# Bacterial cell growth was determined with the measurement of optical density at λ=600 nm each 20 minutes over a time course of 16 h. Growth inhibition was calculated during the logarithmic growth of the bacterial cells with determination of the concentration inhibiting 50% (IC50) and 90% (IC90) of the growth.
# [1] = Acinetobacter baumannii, ATCC17978, 16 h, read-out: ATCC17978 IC90, 90% growth inhibitory concentration, Acinetobacter baumannii ATCC17978, Iso-Sensitest broth, OD 600 nm over 16 h
# [2] = 90% growth inhibitory concentration, Acinetobacter baumannii ATCC17978, Iso-Sensitest broth, OD 600 nm over 16 h, read-out: ATCC17978 IC90
IC90 [2],Compound,IC90 [1]
,"COc1ccc(-c2cnc3c(Nc4ccc(C(=O)N5CCC(C(=O)N[C@@H]6CNC[C@H]6O)CC5)c(C)c4)nccn23)cc1F [Example 56, 1-(4-((3-(3-fluoro-4-methoxyphenyl)imidazo[1,2-a]pyrazin-8-yl)amino)-2-methylbenzoyl)-N-((3R,4R)-4-hydroxypyrrolidin-3-yl)piperidine-4-carboxamide 2,2,2-trifluoroacetate]",220 nM
,"COc1ccc(-c2cnc3c(Nc4ccc(C(=O)N5CCC(CN)CC5)c(C)c4)nccn23)c(Cl)c1F [Example 104, [4-(aminomethyl)-1-piperidyl]-[4-[[3-(2-chloro-3-fluoro-4-methoxy-phenyl)imidazo[1,2-a]pyrazin-8-yl]amino]-2-methyl-phenyl]methanone hydrochloride]",180 nM
150 nM,"COc1ccc(-c2cnc3c(Nc4ccc(C(=O)N5CCC(CNC(C)=O)CC5)c(C)c4)nccn23)cc1 [Example 103, N-((1-(4-((3-(4-methoxyphenyl)imidazo[1,2-a]pyrazin-8-yl)amino)-2-methylbenzoyl)piperidin-4-yl)methyl)acetamide]",
110 nM,"Cc1cc(Nc2nccn3c(-c4ccc(O[C@@H](C)C#N)c(F)c4F)cnc23)ccc1C(=O)N1CCN(CCN(C)C)CC1 [Example 240, ((2S)-2-[4-[8-[4-[4-[2-(dimethylamino)ethyl]piperazine-1-carbonyl]-3-methyl-anilino]imidazo[1,2-a]pyrazin-3-yl]-2,3-difluoro-phenoxy]propanenitrile formate]",
320 nM,"Cc1cc(Nc2nccn3c(-c4ccc(Oc5ccccn5)c(F)c4F)cnc23)ccc1C(=O)N1CCC(CN)CC1 [Example 122, [4-(aminomethyl)-1-piperidyl]-[4-[[3-[2,3-difluoro-4-(2-pyridyloxy)phenyl]imidazo[1,2-a]pyrazin-8-yl]amino]-2-methyl-phenyl]methanone formate]",
,"Cc1cc(Nc2nccn3c(-c4ccc(OC(F)F)cc4)cnc23)ccc1C(=O)N1CCN(C(=O)C2(C#N)CCNCC2)CC1 [Example 517, 4-[4-[4-[[3-[4-(difluoromethoxy)phenyl]imi-dazo[1,2-a]pyrazin-8-yl]amino]-2-methylbenzoyl]piperazine-1-carbonyl]piperidine-4-carbonitrile; hydrochloride]",660 nM
,"Cc1cc(Nc2nccn3c(-c4ccc(OC(F)F)cc4)cnc23)ccc1C(=O)N1CCN(C(=O)[C@@H]2CCNC2)CC1 [Example 486, [4-[[3-[4-(difluoromethoxy)phenyl]imi-dazo[1,2-a]pyrazin-8-yl]amino]-2-methylphenyl]-[4-[(3R)-pyrrolidine-3-carbonyl]piperazin-1-yl]methanone; hydrochloride]",190 nM
,"COc1ccc(-c2cnc3c(Nc4ccc(C(=O)N5CCN(C(=O)[C@@H]6C[C@@H](OC(=O)[C@@H](N)CO)CN6)CC5)c(C)c4)nccn23)c(F)c1F [Example 563, [(3R,5S)-5-[4-[4-[[3-(2,3-difluoro-4-methoxy-phenyl)imidazo[1,2-a]pyrazin-8-yl]amino]-2-methyl-benzoyl]piperazine-1-carbonyl]pyrrolidin-3-yl] (2S)-2-amino-3-hydroxy-propanoate formate]",135 nM
,"Cc1cc(Nc2nccn3c(-c4ccc(OC(F)F)cc4)cnc23)ccc1C(=O)N1CCN(C(=O)C2CC3(CNC3)C2)CC1 [Example 312, [4-(2-azaspiro[3.3]heptane-6-carbonyl)piperazin-1-yl]-[4-[[3-[4-(difluoromethoxy)phenyl]imi-dazo[1,2-a]pyrazin-8-yl]amino]-2-methylphenyl]methanone; hy-drochloride]",220 nM
,"Cc1cc(Nc2nccn3c(-c4ccc(OC(F)F)cc4)cnc23)ccc1C(=O)N1CCN(C(=O)CNC(=N)N)CC1 [Example 316, 1-[2-[4-[4-[[3-[4-(difluoromethoxy)phenyl]imi-dazo[1,2-a]pyrazin-8-yl]amino]-2-methylbenzoyl]piperazin-1-yl]-2-oxoethyl]guanidine; formic acid]",240 nM
,"Cc1cc(Nc2nccn3c(-c4ccc(OC(F)F)cc4)cnc23)ccc1C(=O)N1CCN(C(=O)[C@@H]2C[C@](C)(O)CN2)CC1 [Example 462, [4-[[3-[4-(difluoromethoxy)phenyl]imi-dazo[1,2-a]pyrazin-8-yl]amino]-2-methylphenyl]-[4-[(2S,4S)-4-hydroxy-4-methylpyrrolidine-2-carbonyl]piperazin-1-yl]methanone; formic acid]",110 nM
,"COc1ccc(-c2cnc3c(Nc4ccc(C(=O)N5CCN(C(=O)NCCN)CC5)c(C)c4)nccn23)c(F)c1F [Example 475, N-(2-aminoethyl)-4-[4-[[3-(2,3-difluoro-4-methoxyphenyl)imidazo[1,2-a]pyrazin-8-yl]amino]-2-methylbenzoyl]piperazine-1-carboxamide; formic acid]",97 nM
150 nM,"Cc1cc(Nc2nccn3c(-c4ccc(OC(F)F)cc4)cnc23)ccc1C(=O)N1CCC(CN)CC1 [Example 18, (4-(aminomethyl)piperidin-1-yl)(4-((3-(4-(difluoromethoxy)phenyl)imidazo[1,2-a]pyrazin-8-yl)amino)-2-methylphenyl)methanone hydrochloride]",
470 nM,"Cc1cc(Nc2nccn3c(-c4ccc(OC(F)F)cc4)cnc23)ccc1C(=O)N1CCN(C(=O)NCCN2CCC2)CC1 [Example 168, N-[2-(azetidin-1-yl)ethyl]-4-[4-[[3-[4-(difluoromethoxy)phenyl]imidazo[1,2-a]pyrazin-8-yl]amino]-2-methyl-benzoyl]piperazine-1-carboxamide formate]",
,"Cc1cc(Nc2nccn3c(-c4ccc(OC(F)F)cc4)cnc23)ccc1C(=O)N1CCN(C(=O)[C@H]2C[C@H](O)CN2)CC1 [Example 529, [4-[[3-[4-(difluoromethoxy)phenyl]imi-dazo[1,2-a]pyrazin-8-yl]amino]-2-methylphenyl]-[4-[(2R,4S)-4-hydroxypyrrolidine-2-carbonyl]piperazin-1-yl]methanone; hydrochloride]",690 nM
160 nM,"Cc1cc(Nc2nccn3c(-c4ccc(OCC#N)c(F)c4Cl)cnc23)ccc1C(=O)N1CCC(C(=O)N2CCNC[C@H]2CO)CC1 [Example 208, 2-[3-chloro-2-fluoro-4-[8-[4-[4-[(2S)-2-(hydroxymethyl)piperazine-1-carbonyl]piperidine-1-carbonyl]-3-methyl-anilino]imidazo[1,2-a]pyrazin-3-yl]phenoxy] acetonitrile formate]",
,"Cc1cc(Nc2nccn3c(-c4ccc(OC(F)F)cc4)cnc23)ccc1C(=O)N1CCN(C(=O)CCN)CC1 [Example 519, 3-amino-1-[4-[4-[[3-[4-(difluoromethoxy)phenyl]imi-dazo[1,2-a]pyrazin-8-yl]amino]-2-methylbenzoyl]piperazin-1-yl]propan-1-one; hydrochloride]",410 nM
180 nM,"COc1ccc(-c2cnc3c(Nc4ccc(C(=O)N5CCC(C(=O)NCCN6CCC6)CC5)c(C)c4)nccn23)cc1F [Example 61, N-(2-(azetidin-1-yl)ethyl)-1-(4-((3-(3-fluoro-4-methoxyphenyl)imidazo[1,2-a]pyrazin-8-yl)amino)-2-methylbenzoyl)piperidine-4-carboxamide]",
2800 nM,"Cc1cc(Nc2nccn3c(-c4ccc(OCC#CCN)c(F)c4)cnc23)ccc1C(=O)N1CCC(CNC(=O)OC(C)(C)C)CC1 [Example 274, tert-butyl N-[[1-[4-[[3-[4-(4-aminobut-2-ynoxy)-3-fluorophenyl]imidazo[1,2-a]pyrazin-8-yl]amino]-2-methylbenzoyl]piperidin-4-yl]methyl]carbamate]",
,"CCc1cc(Nc2nccn3c(-c4ccc(OC(F)F)cc4)cnc23)ccc1C(=O)N1CCC(CN)CC1 [Example 363, [4-(aminomethyl)piperidin-1-yl]-[4-[[3-[4-(difluoromethoxy)phenyl]imi-dazo[1,2-a]pyrazin-8-yl]amino]-2-ethylphenyl]methanone; hydro-chloride]",520 nM
400 nM,"COc1ccc(-c2cnc3c(Nc4ccc(C(=O)N5CCC(N6CCC(O)CC6)CC5)c(C)c4)nccn23)cc1F [Example 401, [4-[[3-(3-fluoro-4-methoxyphenyl)imidazo[1,2-a]pyrazin-8-yl]amino]-2-methylphenyl]-[4-(4-hydroxypiperidin-1-yl)piperidin-1-yl]methanone]",
3500 nM,"COc1ccc(-c2cnc3c(Nc4ccc(C(=O)N5CCC(C(=O)NCCS(=O)(=O)O)CC5)c(C)c4)nccn23)cc1F [Example 303, 2-[[1-[4-[[3-(3-fluoro-4-methoxyphenyl)imidazo[1,2-a]pyrazin-8-yl]amino]-2-methylbenzoyl]piperidine-4-carbonyl]amino]ethanesulfo-nic acid]",
100 nM,"Cc1cc(Nc2nccn3c(-c4ccc(OCC#N)c(F)c4F)cnc23)ccc1C(=O)N1CCN(C(=O)[C@H]2CCNC2)CC1 [Example 201, 2-[2,3-difluoro-4-[8-[3-methyl-4-[4-[(3S)-pyrrolidine-3-carbonyl]piperazine-1-carbonyl]anilino]imidazo[1,2-a]pyrazin-3-yl]phenoxy] acetonitrile; formic acid]",
,"Cc1cc(Nc2nccn3c(-c4ccc(OC(F)F)cc4)cnc23)ccc1C(=O)N1CCC(C(=O)N(C)CCO)CC1 [Example 409, 1-[4-[[3-[4-(difluoromethoxy)phenyl]imi-dazo[1,2-a]pyrazin-8-yl]amino]-2-methylbenzoyl]-N-(2-hydroxyethyl)-N-methylpiperidine-4-carboxamide]",580 nM
